From patent publication US6620419B1, “Cosmetic or dermopharmaceutical use of peptides for healing, hydrating and improving skin appearance during natural or induced ageing (heliodermia, pollution)” (Sederma, priority 1998, dated 2003)
Non-standard residues stand in square brackets, D forms with d. No end group written: not given here. *: point of attachment. Palmitoyl = CCCCCCCCCCCCCCCC(=O)*; Sar = CNCC(=O)O

Tests used:
Type in all cases: cell-based
explants of human skin [1] = experiment: Increase in synthesis of collagen in vitro: 3H-proline incorporation in human skin explants; conditions: for increase of incorporation of 3H-proline (synthesis of collagen) relative to blank tests: 72 hours, human skin explants
Method: The method chosen is a modification of that described by Augustin C. et al. (Skin Pharmacol. (1997); 10:63-70) in that we have used explants of human skin instead of human pulmonary fibroblasts, so as to render our results directly usable in cosmetology. These explants, from abdominal or mammary plastic surgery, are incubated for 72 hours in the presence ^3H-proline, with peptide N-Palmitoyl-[…], to three final concentrations in the culture medium (2.10^-4%, 4.10^-4% and 8.10^-4%; namely, 2, 4 and 8 ppm). The explants are then washed, the […] of each explant are separated, homogenized and lysed. The measurement of the incorporation of ^3H-proline is thus carried out in each lysat. Tests were done in triplicate. In parallel, negative controls are carried out under the same conditions but in the absence of the peptide. Positive controls, themselves, are carried out by replacing the peptide tested by vitamin C.

human fibroblasts = experiment: Cutaneous toning activity in vitro: stimulation of protein synthesis, colorimetry (Biuret reaction); conditions: 24 hours, per 1000 cells
Method: For 24 hours, human fibroblasts from the same cellular culture are placed in the presence of the standard culture medium, supplemented or not for controls, with given concentrations of peptide (2, 4 and 8 ppm).
The stimulation of the synthesis of proteins is evaluated by colorimetry (so-called Biuret reaction).
To standardize the results, the quantity of proteins measured is expressed for 1000 cells present in the test.

explants of human skin [2] = experiment: Increase of the synthesis of glycosaminoglycans in vitro: 3H-glucosamine incorporation in human skin explants; conditions: for increase of incorporation of 3H-glucosamine (synthesis of GAGs) relative to blank experiments: 72 hours, human skin explants
Method: The method chosen is a modification of that described by Augustin C. et al. (Skin Pharmacol. (1997); 10:63-70) in that we have used explants of human skin instead of human pulmonary fibroblasts, so as to render our results directly usable in cosmetology.
These explants, from abdominal or mammary plastic surgery, are incubated for 72 hours in the presence ^3H-proline, with peptide N-Palmitoyl-Sarcosine-Thr-Thr-Lys-Ser, to three final concentrations in the culture medium (2.10^−4%, 4.10^−4% and 8.10^−4%; namely, 2, 4 and 8 ppm). The explants are then washed, the derma and epiderma of each explant are separated, homogenized and lysed. The measurement of the incorporation of ^3H-proline is thus carried out in each lysat. Tests were done in triplicate.
In parallel, negative controls are carried out under the same conditions but in the absence of the peptide. Positive controls, themselves, are carried out by replacing the peptide tested by vitamin C.
The same protocol as in Example No. 3 is used, except that, on the one hand, the incubation is carried out in the presence of ^3H-glucosamine instead of ^3H-proline and vitamin A acid is used as reference product in place of vitamin C.

N-Palmitoyl-Sarcosine-Thr-Thr-Lys-Ser (Palmitoyl-[Sar]TTKS)
increase of incorporation of 3H-proline (synthesis of collagen) relative to blank tests (explants of human skin [1]; 2 ppm peptide): 30.2 (±2) %
increase of incorporation of 3H-proline (synthesis of collagen) relative to blank tests (explants of human skin [1]; 4 ppm peptide): 54.7 (±5) %
increase of incorporation of 3H-proline (synthesis of collagen) relative to blank tests (explants of human skin [1]; 8 ppm peptide): 90.9 (±5) %

N-Palmitoyl-Lys-Thr-Thr-Lys-Ser (Palmitoyl-KTTKS) [N-palmytoyl-Lys-Thr-Thr-Lys-Ser]
increase in the concentration of proteins relative to control experiments (human fibroblasts; 2 ppm peptide): 14.7 (±1.0) %
increase in the concentration of proteins relative to control experiments (human fibroblasts; 4 ppm peptide): 21.0(±2.4) %
increase in the concentration of proteins relative to control experiments (human fibroblasts; 8 ppm peptide): 44.8(±1.0) %

O=C1O[C@H]([C@@H](O)CO)C(O)=C1O [ascorbic acid, reference compound]
increase of collagen synthesis (explants of human skin [1]; reference product at 0.5mM, same conditions): 61.4 (±5) %

KTTKSA
increase of incorporation of 3H-glucosamine (synthesis of GAGs) relative to blank experiments (explants of human skin [2]; 2 ppm peptide): 24.5 (±3) %
increase of incorporation of 3H-glucosamine (synthesis of GAGs) relative to blank experiments (explants of human skin [2]; 4 ppm peptide): 48.8 (±3) %
increase of incorporation of 3H-glucosamine (synthesis of GAGs) relative to blank experiments (explants of human skin [2]; 8 ppm peptide): 67.9 (±5) %

CC1=C(/C=C/C(C)=C/C=C/C(C)=C/C(=O)O)C(C)(C)CCC1 [vitamin A acid, reference compound]
increase of synthesis of GAGs (explants of human skin [2]; reference product at 100 nM, same conditions): 45.3 (±2) %
